Data published in PubChem BioAssay (NCI).
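Briefly, cells in 96-well plates were exposed to five compound concentrations for 48 h, and endpoints were estimated by linear interpolation. TGI: total growth inhibition.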

What was measured:
Assay in all cases: NCI tumour cell line growth inhibition, 48 h
CCRF-CEM leukemia = tested on: CCRF-CEM leukemia
OVCAR-5 ovarian = tested on: OVCAR-5 ovarian
SW-620 colon = tested on: SW-620 colon
MDA-MB-435 = tested on: MDA-MB-435
NCI-H226 lung = tested on: NCI-H226 lung
HOP-92 NSCLC = tested on: HOP-92 NSCLC
OVCAR-8 ovarian = tested on: OVCAR-8 ovarian
UACC-257 melanoma = tested on: UACC-257 melanoma
A549 NSCLC = tested on: A549 NSCLC
DMS 273 small cell lung = tested on: DMS 273 small cell lung
SNB-78 CNS = tested on: SNB-78 CNS

COc1cccc2c1C(=O)c1c(O)c3c(c(O)c1C2=O)C[C@@](O)(C(C)=O)CC3OC1CC(OC2CC(N)C(O)C(C)O2)C(O)C(C)O1 (stereo partly drawn)
TGI (CCRF-CEM leukemia): 44 µM | TGI (OVCAR-5 ovarian): > 100 µM | TGI (SW-620 colon): > 100 µM | TGI (MDA-MB-435): > 100 µM | TGI (NCI-H226 lung): > 100 µM | TGI (HOP-92 NSCLC): > 100 µM | TGI (OVCAR-8 ovarian): > 100 µM | TGI (UACC-257 melanoma): > 100 µM | TGI (A549 NSCLC): > 100 µM

Cn1/c(=N\N=C2\C=C3CCCCC3(C)CC2)sc2ccccc21 (stereo not drawn)
TGI (CCRF-CEM leukemia): > 100 µM | TGI (OVCAR-5 ovarian): > 100 µM | TGI (SW-620 colon): > 100 µM | TGI (MDA-MB-435): > 100 µM | TGI (NCI-H226 lung): > 100 µM | TGI (HOP-92 NSCLC): > 100 µM | TGI (OVCAR-8 ovarian): > 100 µM | TGI (UACC-257 melanoma): > 100 µM | TGI (A549 NSCLC): > 100 µM

CC(C)(C)C1CCC2c3c([nH]c4ccccc34)C3C(=O)N(c4ccc([N+](=O)[O-])cc4)C(=O)C3C2C1 (stereo not drawn)
TGI (CCRF-CEM leukemia): > 100 µM | TGI (OVCAR-5 ovarian): > 100 µM | TGI (SW-620 colon): > 100 µM | TGI (MDA-MB-435): > 100 µM | TGI (NCI-H226 lung): 29 µM | TGI (HOP-92 NSCLC): 17.5 µM | TGI (OVCAR-8 ovarian): > 100 µM | TGI (UACC-257 melanoma): > 100 µM | TGI (A549 NSCLC): 62.1 µM

O=S(=O)(Nc1nc2ccccc2nc1N1CCCCCC1)c1ccccc1
TGI (CCRF-CEM leukemia): > 100 µM | TGI (OVCAR-5 ovarian): > 100 µM | TGI (SW-620 colon): 65.3 µM | TGI (MDA-MB-435): 64.6 µM | TGI (NCI-H226 lung): > 100 µM | TGI (HOP-92 NSCLC): 37.4 µM | TGI (OVCAR-8 ovarian): > 100 µM | TGI (UACC-257 melanoma): 99.2 µM | TGI (A549 NSCLC): > 100 µM

CC(C)CCCC(C)[C@H]1CCC(C2C[C@@H](O)[C@@H]3CC(O)[C@@H](O)C[C@]3(CO)C2=O)[C@]1(C)CCO (stereo partly drawn)
TGI (CCRF-CEM leukemia): 40.9 µM | TGI (OVCAR-5 ovarian): 55.8 µM | TGI (SW-620 colon): 52.7 µM | TGI (DMS 273 small cell lung): > 68.5 µM | TGI (NCI-H226 lung): > 73.8 µM | TGI (OVCAR-8 ovarian): > 76.1 µM | TGI (UACC-257 melanoma): 46.5 µM | TGI (SNB-78 CNS): 85.5 µM | TGI (A549 NSCLC): > 96.2 µM

ClC1=NN=C(c2c[nH]c3ccccc23)CC1NCc1ccccc1 (stereo not drawn)
TGI (CCRF-CEM leukemia): > 100 µM | TGI (OVCAR-5 ovarian): > 100 µM | TGI (SW-620 colon): > 100 µM | TGI (MDA-MB-435): > 100 µM | TGI (NCI-H226 lung): > 100 µM | TGI (HOP-92 NSCLC): > 100 µM | TGI (OVCAR-8 ovarian): > 100 µM | TGI (UACC-257 melanoma): > 100 µM | TGI (A549 NSCLC): > 100 µM

CC(=O)NC1C(OCc2ccccc2)OC(CO)C(O)C1OC(C)C(=O)N[C@@H](C)C(=O)N[C@H](CCC(=O)NCCNCCNc1c2ccccc2nc2cccc([N+](=O)[O-])c12)C(N)=O (stereo partly drawn)
TGI (CCRF-CEM leukemia): > 100 µM | TGI (OVCAR-5 ovarian): 5.19 µM | TGI (SW-620 colon): > 38.1 µM | TGI (MDA-MB-435): 0.235 µM | TGI (NCI-H226 lung): 0.716 µM | TGI (HOP-92 NSCLC): 0.169 µM | TGI (OVCAR-8 ovarian): 0.457 µM | TGI (UACC-257 melanoma): 0.753 µM | TGI (A549 NSCLC): 1.71 µM
